Laboratory results: the supplement of paper PMC10307832

What was measured:
Experiment in all cases: relative viability (nuclei count vs DMSO), 5 days (fraction); higher = more cells survive
[1] = compound: C1COCCN1C2=NC(=NC3=C2OC4=C3C=CC=N4)C5=CC(=CC=C5)NC(=O)C6=CN=C(C=C6)N + N=C(N)NC(=N)NCCc1ccccc1 [Phenformin] (partner 250 µM)
Method in brief: (§1)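 Dosing by pin tool came one day after lung cancer cell lines were seeded in 1536-well plates, using either one drug or a fixed anchor-drug dose plus five library-drug doses (not always all listed) in √10 steps. After 5 days, nuclei were counted on 4× images. Relative viability is treated-well nuclei count divided by vehicle-well nuclei count, and values are medians of duplicate plates.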

[2] = compound: C1COCCN1C2=NC(=NC3=C2OC4=C3C=CC=N4)C5=CC(=CC=C5)NC(=O)C6=CN=C(C=C6)N + CC1(C)CCC(c2ccc(Cl)cc2)=C(CN2CCN(c3ccc(C(=O)NS(=O)(=O)c4ccc(N[C@H](CCN5CCOCC5)CSc5ccccc5)c(S(=O)(=O)C(F)(F)F)c4)cc3)CC2)C1 [Navitoclax] (partner 0.5 µM)
Method in brief: as §1

[3] = compound: CN1CCC(CNc2ccc3ncc(-c4cccc(OC(F)(F)F)c4)n3n2)CC1 [SGI-1776] + CCNC(=O)c1noc(-c2cc(C(C)C)c(O)cc2O)c1-c1ccc(CN2CCOCC2)cc1 [Luminespib] (partner 0.01 µM)
Method in brief: as §1

[4] = compound: CN1CCC(CNc2ccc3ncc(-c4cccc(OC(F)(F)F)c4)n3n2)CC1 [SGI-1776] + CC(=O)Nc1cccc(-n2c(=O)n(C3CC3)c(=O)c3c(Nc4ccc(I)cc4F)n(C)c(=O)c(C)c32)c1 [Trametinib] (partner 0.02 µM)
Method in brief: as §1

| Cell Line | relative viability ([1]; first compound 0.02 µM) | relative viability ([1]; first compound 0.06325 µM) | relative viability ([1]; first compound 0.2 µM) | relative viability ([1]; first compound 0.6325 µM) | relative viability ([1]; first compound 2 µM) | relative viability ([2]; first compound 0.02 µM) | relative viability ([2]; first compound 0.06325 µM) | relative viability ([2]; first compound 0.2 µM) | relative viability ([2]; first compound 0.6325 µM) | relative viability ([2]; first compound 2 µM) | relative viability ([3]; first compound 0.08 µM) | relative viability ([3]; first compound 0.8 µM) | relative viability ([3]; first compound 2.53 µM) | relative viability ([3]; first compound 8 µM) | relative viability ([4]; first compound 0.08 µM) | relative viability ([4]; first compound 0.8 µM) | relative viability ([4]; first compound 2.53 µM) | relative viability ([4]; first compound 8 µM) |
| --- | --- | --- | --- | --- | --- | --- | --- | --- | --- | --- | --- | --- | --- | --- | --- | --- | --- | --- |
| NCI-H441 | 0.798 | 0.868 | 0.731 | 0.833 | 0.527 | 0.546 | 0.566 | 0.571 | 0.665 | 0.297 | 0.379 | 0.294 | 0.312 | 0.239 | 0.497 | 0.51 | 0.5 | 0.294 |
| NCI-H1915 | 0.338 | 0.383 | 0.397 | 0.392 | 0.302 | 0.757 | 0.838 | 0.824 | 0.836 | 0.873 | 0.778 | 0.843 | 0.75 | 0.684 | 0.317 | 0.281 | 0.309 | 0.277 |
| NCI-H1299 |  |  |  |  |  | 1.04 | 1.05 | 1.01 | 1.07 | 0.976 |  |  |  |  |  |  |  |  |
| HCC-827 | 0.384 | 0.43 | 0.419 | 0.416 | 0.386 | 1.02 | 1.07 | 1.08 | 1.05 | 1.07 | 0.551 | 0.622 | 0.782 | 0.348 | 0.578 | 0.534 | 0.578 | 0.464 |
| EMC-BAC-2 | 0.543 | 0.56 | 0.451 | 0.469 | 0.304 | 1.21 | 1.28 | 1.26 | 1.12 | 0.984 | 1.2 | 1.27 | 1.26 | 1.11 | 0.992 | 0.966 | 0.853 | 0.879 |
| NCI-H596 | 0.768 | 0.916 | 0.754 | 0.598 | 0.61 | 1.04 | 0.983 | 1.03 | 0.912 | 0.444 | 0.975 | 0.934 | 0.798 | 0.941 | 0.797 | 0.733 | 0.782 | 0.678 |
| NCI-H1792 | 0.245 | 0.471 | 0.211 | 0.218 | 0.179 | 0.571 | 0.675 | 0.718 | 0.53 | 0.462 | 0.371 | 0.558 | 0.431 | 0.264 | 0.446 | 0.446 | 0.437 | 0.324 |
| NCI-H2009 | 0.468 | 0.485 | 0.449 | 0.371 | 0.242 | 1.19 | 1.2 | 1.12 | 1.05 | 0.954 | 1.04 | 1.03 | 0.977 | 0.955 | 0.345 | 0.303 | 0.234 | 0.175 |
| NCI-H2347 | 0.356 | 0.369 | 0.308 | 0.449 | 0.277 | 0.854 | 0.895 | 0.815 | 0.747 | 0.528 | 0.344 | 0.558 | 0.324 | 0.539 | 0.323 | 0.278 | 0.3 | 0.277 |
| SW 900 | 0.425 | 0.674 | 0.557 | 0.376 | 0.345 |  |  |  |  |  | 0.178 | 0.173 | 0.208 | 0.166 | 0.855 | 0.76 | 0.653 | 0.724 |
| NCI-H1563 | 0.647 | 0.636 | 0.654 | 0.593 | 0.532 |  |  |  |  |  | 0.522 | 0.497 | 0.515 | 0.538 |  |  |  |  |
| SK-MES-1 | 0.663 | 0.766 | 0.729 | 0.618 | 0.462 | 1.42 | 1.22 | 1.17 | 0.931 | 0.787 | 0.856 | 0.849 | 0.395 | 0.386 | 0.546 | 0.521 | 0.494 | 0.324 |
| NCI-H3122 | 0.619 | 0.359 | 0.347 | 0.372 | 0.343 | 0.975 | 1.05 | 1.03 | 1.02 | 0.798 | 0.089 | 0.096 | 0.0857 | 0.0863 | 0.238 | 0.19 | 0.274 | 0.244 |
| Calu-6 |  |  |  |  |  | 1.03 | 1.01 | 0.846 | 0.809 | 0.384 |  |  |  |  |  |  |  |  |
| NCI-H650 | 0.453 | 0.469 | 0.417 | 0.457 | 0.431 |  |  |  |  |  | 0.863 | 0.734 | 0.9 | 0.858 | 1.09 | 1.01 | 0.965 | 0.869 |
| NCI-H661 | 0.268 | 0.3 | 0.263 | 0.248 | 0.206 |  |  |  |  |  | 0.996 | 0.977 | 1 | 0.913 | 0.596 | 0.534 | 0.525 | 0.466 |
| EBC-1 |  |  |  |  |  | 0.397 | 0.368 | 0.32 | 0.377 | 0.234 |  |  |  |  |  |  |  |  |
| NCI-H2342 | 0.651 | 0.564 | 0.565 | 0.695 | 0.576 |  |  |  |  |  | 0.695 | 0.767 | 0.721 | 0.64 | 0.891 | 0.779 | 0.809 | 0.769 |
| NCI-H1703 |  |  |  |  |  | 0.874 | 1.03 | 0.983 | 0.646 | 0.416 |  |  |  |  |  |  |  |  |
| IA-LM |  |  |  |  |  |  | 0.751 | 0.705 | 0.656 | 0.374 |  |  |  |  |  |  |  |  |
| NCI-H1648 |  |  |  |  |  |  |  |  |  |  |  |  |  |  | 0.397 | 0.441 | 0.415 | 0.398 |
| NCI-H522 | 0.638 | 0.701 | 0.63 | 1.49 | 0.599 |  |  |  |  |  | 1.16 | 1.1 | 1.09 | 0.972 | 0.81 | 0.789 | 0.723 | 0.798 |
| A549 |  | 0.159 | 0.142 | 0.206 | 0.063 | 1.37 | 1.22 | 1.13 | 1.18 | 0.668 |  |  |  |  |  |  |  |  |
| HCC-78 | 0.716 | 0.654 | 0.761 | 0.681 | 0.642 | 0.709 | 0.728 | 0.906 | 0.769 | 0.645 |  |  |  |  | 0.772 | 0.804 | 0.693 | 0.72 |
